The target in assay [1] is Fms kinase (Homo sapiens, UniProt P07333). The assay can be described thus: Fms kinase biochemical activity assay (AlphaScreen, biotin-(E4Y)10 phosphorylation). Particulars: 100 μM ATP; read-out: Biochemical Inhibition IC50 Fms. As to the method:
In one assay the biochemical activity IC50 values are determined with respect to inhibition of Fms kinase activity, where inhibition of phosphorylation of a peptide substrate is measured as a function of compound concentration. Compounds to be tested, dissolved in DMSO (1 μL), are added to a white 384-well plate (Costar #3705). Working stocks of Fms kinase (Invitrogen #PV3249), biotin-(E4Y)10 substrate (Upstate Biotech, Cat#12-440), and ATP (Sigma, Cat#A-3377) are prepared in 25 mM Hepes pH 7.5, 0.5 mM MgCl2, 2 mM MnCl2, 2 mM DTT, 0.01% BSA, and 0.01% Tween-20. All components are added to the 384-well plate for a final concentration of 1 ng/well Fms, 30 nM biotin-(E4Y)10 (Upstate Biotechnology) and 100 μM ATP in a volume of 20 μL. Each sample is at 5% DMSO. The plate is then incubated for 20 minutes at 30° C. Just before use, working stocks of donor and acceptor beads from the AlphaScreen PY20 Detection Kit (PerkinElmer, Cat#676601M) are prepared in 25 mM Hepes pH 7.5, pH 7.4, 100 mM EDTA, 0.01% BSA. To stop the reaction, the plate is uncovered in the dark and 5 μL of Donor Beads solution (Streptavidin beads) is added to each well. The plate is incubated at room temperature for 20 minutes. Five microliters of Acceptor Beads solution (PY20 coated beads) are then added to each well. The final concentration of each bead is 10 μg/mL. The plates are incubated at room temperature for 60 minutes. Fluorescence signal is recorded on the Envision reader. Phosphorylated substrate results in binding of the PY20 antibody and association of the donor and acceptor beads such that signal correlates with kinase activity. The signal vs. compound concentration is used to determine the IC50.

In assay [2] the target is T1, BCR-FMS BaF3 cells (Homo sapiens, UniProt P07333).
T1 construct: fused on or other part: P11274 (Breakpoint cluster region protein)
T1 sequence (P07333 582-910): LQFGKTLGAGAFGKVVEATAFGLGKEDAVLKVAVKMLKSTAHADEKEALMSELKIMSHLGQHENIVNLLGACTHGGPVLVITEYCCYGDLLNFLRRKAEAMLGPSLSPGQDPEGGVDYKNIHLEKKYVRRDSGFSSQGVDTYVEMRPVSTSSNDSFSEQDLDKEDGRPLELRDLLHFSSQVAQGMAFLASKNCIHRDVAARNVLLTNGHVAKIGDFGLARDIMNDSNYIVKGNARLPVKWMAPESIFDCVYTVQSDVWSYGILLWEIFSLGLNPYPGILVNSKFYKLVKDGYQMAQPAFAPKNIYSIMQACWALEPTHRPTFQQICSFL
The assay can be described thus: BaF3 BCR-FMS cell proliferation assay (ATPlite). The assay is classed as cell-based. The conditions noted are these: read-out: Inhibition of Cell Proliferation IC50, BCR/BaF3 Fms. As to the method:
Compounds are assessed in a variety of cell based assays. For example BaF3 cells engineered with any of BCR-FMS, BCR-KIT, BCR-FLT3, BCR-NTRK1, BCR-NTRK2, and BCR-NTRK3, are used in cell proliferation assays to assess inhibitory activity of Fms, Kit, Flt-3, TrkA, TrkB, and TrkC, respectively. An MV-4-11 (leukemia) cell proliferation assay is used to assess inhibitory activity in Flt-3, and SKNSH (human neuroblastoma) cell proliferation assay is used to assess efficacy of Fms/Trk inhibitors. Additional cells may be assayed similarly to assess the efficacy of Fms/Trk inhibitors, such as MiaPaCa (human pancreatic cancer) and Capan-1 (human pancreatic carcinoma) cells. Reagent and assay conditions are as follows: • BaF3 cells: • Maintained in RPMI containing 10% FBS, 1% PenStrep, 1% NEAA, and 1% L-Glutamine, supplemented with 1 mg/mL G418 and 5% WEHI-CM (or recombinant murine IL-3). • Confluent cells are split 1:50 to 1:100 every 3-4 days. • MV-4-11 cells: • Maintained in Iscove's Modified Dulbecco's Medium containing 10% FBS. • Confluent cells are split 1:4 every 3-4 days. • SKNSH cells: RPMI containing 10% FBS. On day 1, cells are counted, then centrifuged in a conical tube for 5 minutes at 1000 rpm. The supernatant is removed and cells are re-suspended as follows: • BaF3: resuspend in growth media +1 mg/mL G418 (without WEHFIL-3) to 2×10^5 cells/mL. • MV-4-11: resuspend in growth media to 5×10^5 cells/mL. • SKNSH: resuspend in growth media to 2×10^4 cells/mL. The cells are plated (50 μL, 150 μL for SKNSH cells) in each well of a 96-well dish (Corning 3610) and incubated at 37° C. in 5% CO2 overnight, cells plated to a final concentration of cells as follows: • BaF3: 10,000 cells per well. • MV-4-11: 25,000 cells per well. • SKNSH: 3,000 cells per well. On day 2, compound at a maximum concentration of 5 mM is serially diluted 1:3 for a total of 8 point titration with DMSO as a control. A 1 μL aliquot of each dilution point is added to 249 μL growth media and 50 μL is added to a well containing cells, providing 10 μM compound for the maximum concentration point. The cells are incubated for 3 days at 37° C. in 5% CO2. For SKNSH cells, a 0.75 μL aliquot of appropriate dilution in DMSO is added to 150 μL of cells. On day 5, ATPlite 1 step Luminescence Assay System (Perkin Elmer #6016739) is brought to room temperature along with the cell cultures. ATPlite is added to each well as follows: • BaF3: 25 μL per well. • MV-4-11: 40 μL per well. • SKNSH: 20 μL per well. The cells are incubated at room temperature for 10 minutes, then luminescence is read on Safire reader. The measured luminescence correlates directly with cell number, such that the reading as a function of compound concentration is used to determine the IC50 value.
It is understood that the results of these assays may vary as assay conditions are varied. Inhibition levels determined under the conditions described herein represent a relative activity for the compounds tested under the specific conditions employed. The cell based assays are likely to show variability due to the complexity of the system and the sensitivity thereof to any changes in the assay conditions. […] Results for compounds that are tested and show substantially no inhibition below the highest tested concentration are represented as “-” in the tables below. In some instances, the compounds were not tested in all of the assays, or assay results were not valid, as indicated by NA in the tables below.
On the technique in general: ATP-based viability assays read luminescence as a measure of living cells.

Molecules are shown by their SMILES.

Chain of Fms kinase (P07333 20-972): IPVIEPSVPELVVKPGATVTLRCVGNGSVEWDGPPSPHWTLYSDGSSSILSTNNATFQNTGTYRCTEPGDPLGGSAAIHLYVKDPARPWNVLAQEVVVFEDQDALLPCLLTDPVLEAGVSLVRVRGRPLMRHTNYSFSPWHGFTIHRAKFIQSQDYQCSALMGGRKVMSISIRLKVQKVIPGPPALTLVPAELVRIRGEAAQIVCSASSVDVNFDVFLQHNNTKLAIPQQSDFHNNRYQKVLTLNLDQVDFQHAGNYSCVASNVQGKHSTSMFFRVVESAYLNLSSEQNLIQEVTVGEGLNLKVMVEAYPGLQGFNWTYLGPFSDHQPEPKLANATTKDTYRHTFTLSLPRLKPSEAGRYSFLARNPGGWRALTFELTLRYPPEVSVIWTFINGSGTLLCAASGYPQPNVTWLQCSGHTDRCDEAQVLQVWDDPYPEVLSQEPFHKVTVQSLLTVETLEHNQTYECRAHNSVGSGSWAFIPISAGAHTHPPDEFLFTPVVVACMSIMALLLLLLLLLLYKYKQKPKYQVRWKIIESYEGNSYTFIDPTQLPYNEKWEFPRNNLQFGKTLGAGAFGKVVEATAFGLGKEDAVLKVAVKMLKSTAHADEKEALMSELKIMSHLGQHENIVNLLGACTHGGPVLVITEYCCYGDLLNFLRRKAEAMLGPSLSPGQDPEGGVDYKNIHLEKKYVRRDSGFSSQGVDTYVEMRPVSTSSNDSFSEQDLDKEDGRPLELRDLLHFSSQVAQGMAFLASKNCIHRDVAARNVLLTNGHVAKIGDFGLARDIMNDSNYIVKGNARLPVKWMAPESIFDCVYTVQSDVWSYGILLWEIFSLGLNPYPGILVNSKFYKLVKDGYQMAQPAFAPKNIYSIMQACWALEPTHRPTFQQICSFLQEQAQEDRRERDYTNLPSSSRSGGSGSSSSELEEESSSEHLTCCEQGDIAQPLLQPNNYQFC

Regarding `COc1ccc(Nc2ccc(C(=O)c3c[nH]c4ncnc(NCc5ccc(C(F)(F)F)nc5)c34)c(F)n2)cn1` [Compound P-4071, [2-fluoro-6-[(6-methoxy-3-pyridyl)amino]-3-pyridyl]-[4-[[6-(trifluoromethyl)-3-pyridyl]methylamino]-7H-pyrrolo[2,3-d]pyrimidin-5-yl]methanone], the IC50 in assay [1] is under 1 µM; in assay [2], under 0.1 µM.

For the compound `CCNc1ncnc2[nH]cc(C(=O)c3ccc(Nc4ccc(OC)nc4)nc3F)c12` [Compound P-4081, [4-(ethylamino)-7H-pyrrolo[2,3-d]pyrimidin-5-yl]-[2-fluoro-6-[(6-methoxy-3-pyridyl)amino]-3-pyridyl]methanone], the IC50 in assay [1] and in assay [2] was under 0.01 µM throughout.

Regarding `CNc1ncnc2[nH]cc(C(=O)c3ccc(Nc4ccc(OC)nc4)nc3OC)c12` [Compound P-4085, [2-methoxy-6-[(6-methoxy-3-pyridyl)amino]-3-pyridyl]-[4-(methylamino)-7H-pyrrolo[2,3-d]pyrimidin-5-yl]methanone], the values for the IC50 in assay [1] and in assay [2] were under 0.01 µM and under 1 µM, respectively.

For `CCc1ccc(Nc2ccc(C(=O)c3c[nH]c4ncnc(NC(C)C)c34)c(F)n2)cn1` [Compound P-4117, [6-[(6-ethyl-3-pyridyl)amino]-2-fluoro-3-pyridyl]-[4-(isopropylamino)-7H-pyrrolo[2,3-d]pyrimidin-5-yl]methanone], the IC50 in assay [1] and in assay [2] was under 0.01 µM each time.

For `CCCCNc1ncnc2[nH]cc(C(=O)c3ccc(Nc4ccc(OC)nc4)nc3F)c12` [Compound P-4080, [4-(butylamino)-7H-pyrrolo[2,3-d]pyrimidin-5-yl]-[2-fluoro-6-[(6-methoxy-3-pyridyl)amino]-3-pyridyl]methanone], the IC50 in assay [1] is under 0.01 µM; in assay [2], under 0.1 µM.

Turning to `Cc1ccc(Nc2ccc(C(=O)c3c[nH]c4ncnc(NCC5CC5)c34)c(F)n2)cn1` [Compound P-4113, [4-(cyclopropylmethylamino)-7H-pyrrolo[2,3-d]pyrimidin-5-yl]-[2-fluoro-6-[(6-methyl-3-pyridyl)amino]-3-pyridyl]methanone], the IC50 in assay [1] and in assay [2] was under 0.01 µM each time.

Regarding `CCCNc1ncnc2[nH]cc(C(=O)c3ccc(Nc4ccc(OC)nc4)nc3F)c12` [Compound P-4068, [2-fluoro-6-[(6-methoxy-3-pyridyl)amino]-3-pyridyl]-[4-(propylamino)-7H-pyrrolo[2,3-d]pyrimidin-5-yl]methanone], the IC50 in assay [1] and in assay [2] was under 0.01 µM throughout.

Take `COCCCNc1ncnc2[nH]cc(C(=O)c3ccc(Nc4ccc(OC)nc4)nc3F)c12` [Compound P-4079, [2-fluoro-6-[(6-methoxy-3-pyridyl)amino]-3-pyridyl]-[4-(3-methoxypropylamino)-7H-pyrrolo[2,3-d]pyrimidin-5-yl]methanone]: the IC50 was under 0.01 µM in assay [1] and under 0.1 µM in assay [2].

As for `CCc1ccc(Nc2ccc(C(=O)c3c[nH]c4ncnc(NC5CCOCC5)c34)c(F)n2)cn1` [Compound P-4116, [6-[(6-ethyl-3-pyridyl)amino]-2-fluoro-3-pyridyl]-[4-(tetrahydropyran-4-ylamino)-7H-pyrrolo[2,3-d]pyrimidin-5-yl]methanone], the IC50 in assay [1] was under 0.1 µM; in assay [2], under 0.01 µM.

Regarding `Cc1ccc(Nc2ccc(C(=O)c3c[nH]c4ncnc(NC5CCCCC5)c34)c(F)n2)cn1` [Compound P-4111, [4-(cyclohexylamino)-7H-pyrrolo[2,3-d]pyrimidin-5-yl]-[2-fluoro-6-[(6-methyl-3-pyridyl)amino]-3-pyridyl]methanone], the IC50 in assay [1] and in assay [2] was under 0.1 µM each time.

In the case of `COc1ccc(Nc2ccc(C(=O)c3c[nH]c4ncnc(NC(C)C)c34)c(F)n2)cn1` [Compound P-4066, [2-fluoro-6-[(6-methoxy-3-pyridyl)amino]-3-pyridyl]-[4-(isopropylamino)-7H-pyrrolo[2,3-d]pyrimidin-5-yl]methanone], the IC50 in assay [1] and in assay [2] was under 0.01 µM in each case.

With `O=C(c1ccc(NC2CCC(F)(F)CC2)nc1)c1c[nH]c2ncnc(NCC(F)(F)F)c12` [Compound P-4087, [6-[(4,4-difluorocyclohexyl)amino]-3-pyridyl]-[4-(2,2,2-trifluoroethylamino)-7H-pyrrolo[2,3-d]pyrimidin-5-yl]methanone], the IC50 was under 0.1 µM in assay [1] and under 1 µM in assay [2].

Consider `COc1ccc(Nc2ccc(C(=O)c3c[nH]c4ncnc(NC5CCC5)c34)c(F)n2)cn1` [Compound P-4076, [4-(cyclobutylamino)-7H-pyrrolo[2,3-d]pyrimidin-5-yl]-[2-fluoro-6-[(6-methoxy-3-pyridyl)amino]-3-pyridyl]methanone], for which the IC50 in assay [1] was under 0.01 µM; in assay [2], under 0.1 µM.

Regarding `CCc1ccc(Nc2ccc(C(=O)c3c[nH]c4ncnc(Nc5ccc(C)nc5)c34)c(F)n2)cn1` [Compound P-4086, [6-[(6-ethyl-3-pyridyl)amino]-2-fluoro-3-pyridyl]-[4-[(6-methyl-3-pyridyl)amino]-7H-pyrrolo[2,3-d]pyrimidin-5-yl]methanone], the IC50 in assay [1] was under 1 µM.

`Fc1ccc(Nc2ncc(Cc3c[nH]c4ncc(Cl)cc34)cn2)cc1` [Compound P-3012, [5-(5-Chloro-1H-pyrrolo[2,3-b]pyridin-3-ylmethyl)-pyrimidin-2-yl]-(4-fluoro-phenyl)-amine]: the IC50 in assay [1] was under 0.01 µM; in assay [2], under 0.1 µM.

In the case of `COc1ccc(Nc2ccc(C(=O)c3c[nH]c4ncnc(NCC5CC5)c34)c(F)n2)cn1` [Compound P-4067, [4-(cyclopropylmethylamino)-7H-pyrrolo[2,3-d]pyrimidin-5-yl]-[2-fluoro-6-[(6-methoxy-3-pyridyl)amino]-3-pyridyl]methanone], the IC50 in assay [1] and in assay [2] was under 0.01 µM each time.

For the origin of these results see patent US8901118B2, “Compounds and methods for kinase modulation, and indications therefor” (Plexxikon Inc., priority 2010, dated 2014).
